Data published in ChEMBL document CHEMBL5154800, “Identification of N, C-capped di- and tripeptides as selective immunoproteasome inhibitors” (Eur J Med Chem, 2022).
pIC50: −log10 of the molar value. Activity calls are given as the source filed them. The rule behind the calls is not given here.

What follows are compounds tested on HCT-116 (assay: Antiproliferative activity against human HCT-116 cells assessed as growth inhibition measured after 72 hrs by CCK-8 assay). Details: HCT-116, 72 h.
Format: functional, cell-based
`Cc1ccc(CNC(=O)[C@H](Cc2ccccc2)NC(=O)[C@H](CCC(=O)NC(C)(C)C)NC(=O)[C@H](CNC(=O)CCl)NC(=O)CCCc2ccccc2)cc1` gave a pIC50 of 6.06.
For `Cc1ccc(CNC(=O)[C@H](Cc2ccc([N+](=O)[O-])cc2)NC(=O)[C@H](CCC(=O)NC(C)(C)C)NC(=O)CCNC(=O)CCl)cc1`, the pIC50 was 6.10.
`Cc1ccc(CNC(=O)[C@H](Cc2ccccc2)NC(=O)[C@H](CCC(=O)NC(C)(C)C)NC(=O)CCNC(=O)/C(C#N)=C/c2ccco2)cc1` gave a pIC50 of 6.80.
For `Cc1ccc(CNC(=O)[C@H](Cc2ccc3ccccc3c2)NC(=O)[C@H](CCC(=O)NC(C)(C)C)NC(=O)CCNC(=O)CCl)cc1`, the pIC50 was 5.77.

Each compound was assayed on THP-1 (assay: Antiinflammatory activity against LPS-stimulated human THP-1 cells assessed inhibition of TNF-alpha release at 40 uM measured by ELISA). Details: not given.
Format: functional, cell-based
`Cc1ccc(CNC(=O)[C@H](Cc2ccc3ccccc3c2)NC(=O)[C@H](CCC(=O)NC(C)(C)C)NC(=O)CCNC(=O)CCl)cc1` was tested, and the Activity was “Active”.

The compounds below were run on MCF7 (assay: Antiproliferative activity against human MCF7 cells assessed as growth inhibition at 0.2 uM measured after 72 hrs by MTT assay). Details: read-out: GI.
Format: functional
For `Cc1ccc(CNC(=O)[C@H](Cc2ccccc2)NC(=O)[C@H](CCC(=O)NC(C)(C)C)NC(=O)[C@H](CNC(=O)CCl)NC(=O)CCCc2ccccc2)cc1`, the inhibition of growth at 0.2 µM was < 20%.
With `Cc1ccc(CNC(=O)[C@H](Cc2ccc([N+](=O)[O-])cc2)NC(=O)[C@H](CCC(=O)NC(C)(C)C)NC(=O)CCNC(=O)CCl)cc1` the inhibition of growth at 0.2 µM was < 20%.
`Cc1ccc(CNC(=O)[C@H](Cc2ccccc2)NC(=O)[C@H](CCC(=O)NC(C)(C)C)NC(=O)CCNC(=O)/C(C#N)=C/c2ccco2)cc1` was tested, and the inhibition of growth at 0.2 µM was < 20%.
For `Cc1ccc(CNC(=O)[C@H](Cc2ccc3ccccc3c2)NC(=O)[C@H](CCC(=O)NC(C)(C)C)NC(=O)CCNC(=O)CCl)cc1`, the inhibition of growth at 0.2 µM was < 20%.

What follows are compounds tested on THP-1 (assay: Antiinflammatory activity against LPS-stimulated human THP-1 cells assessed inhibition of IL-6 release at 40 uM measured by ELISA). Details: not given.
Format: functional, cell-based
In the case of `Cc1ccc(CNC(=O)[C@H](Cc2ccc3ccccc3c2)NC(=O)[C@H](CCC(=O)NC(C)(C)C)NC(=O)CCNC(=O)CCl)cc1`, the Activity was “Active”.

Each compound was assayed against T1, Proteasome subunit beta type-8 (Homo sapiens, UniProt P28062) (assay: Inhibition of 20S proteasome subunit beta-5i (unknown origin) using Ac-ANW-AMC as substrate and measured after 30 mins). Details: not given.
T1 sequence (P28062 whole entry): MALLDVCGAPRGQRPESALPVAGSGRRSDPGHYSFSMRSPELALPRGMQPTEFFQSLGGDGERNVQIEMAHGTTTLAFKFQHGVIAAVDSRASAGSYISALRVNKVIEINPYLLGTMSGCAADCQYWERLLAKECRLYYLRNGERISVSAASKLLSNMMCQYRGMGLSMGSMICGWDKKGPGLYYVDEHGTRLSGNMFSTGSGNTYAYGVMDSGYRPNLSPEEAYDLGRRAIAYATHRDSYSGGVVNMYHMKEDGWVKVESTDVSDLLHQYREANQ
`Cc1ccc(CNC(=O)[C@H](Cc2ccccc2)NC(=O)[C@H](CCC(=O)NC(C)(C)C)NC(=O)CCNC(=O)/C(C#N)=C/c2ccco2)cc1` gave a pIC50 of 8.53.

What follows are compounds tested on Pfeiffer (assay: Antiproliferative activity against human Pfeiffer cells assessed as growth inhibition at 0.2 uM measured after 72 hrs by MTT assay). Details: read-out: GI.
Format: functional
`Cc1ccc(CNC(=O)[C@H](Cc2ccccc2)NC(=O)[C@H](CCC(=O)NC(C)(C)C)NC(=O)[C@H](CNC(=O)CCl)NC(=O)CCCc2ccccc2)cc1` was tested, and the inhibition of growth at 0.2 µM was 23%.
`Cc1ccc(CNC(=O)[C@H](Cc2ccc([N+](=O)[O-])cc2)NC(=O)[C@H](CCC(=O)NC(C)(C)C)NC(=O)CCNC(=O)CCl)cc1` was tested, and the inhibition of growth at 0.2 µM was < 20%.
In the case of `Cc1ccc(CNC(=O)[C@H](Cc2ccccc2)NC(=O)[C@H](CCC(=O)NC(C)(C)C)NC(=O)CCNC(=O)/C(C#N)=C/c2ccco2)cc1`, the inhibition of growth at 0.2 µM was < 20%.
`Cc1ccc(CNC(=O)[C@H](Cc2ccc3ccccc3c2)NC(=O)[C@H](CCC(=O)NC(C)(C)C)NC(=O)CCNC(=O)CCl)cc1` was tested, and the inhibition of growth at 0.2 µM was 28%.

Each compound was assayed on DOHH-2 (assay: Antiproliferative activity against human DOHH-2 cells assessed as growth inhibition at 0.2 uM measured after 72 hrs by MTT assay). Details: read-out: GI.
Format: functional
With `Cc1ccc(CNC(=O)[C@H](Cc2ccccc2)NC(=O)[C@H](CCC(=O)NC(C)(C)C)NC(=O)[C@H](CNC(=O)CCl)NC(=O)CCCc2ccccc2)cc1` the inhibition of growth at 0.2 µM was 25%.
`Cc1ccc(CNC(=O)[C@H](Cc2ccc([N+](=O)[O-])cc2)NC(=O)[C@H](CCC(=O)NC(C)(C)C)NC(=O)CCNC(=O)CCl)cc1` was tested, and the inhibition of growth at 0.2 µM was < 20%.
For `Cc1ccc(CNC(=O)[C@H](Cc2ccccc2)NC(=O)[C@H](CCC(=O)NC(C)(C)C)NC(=O)CCNC(=O)/C(C#N)=C/c2ccco2)cc1`, the inhibition of growth at 0.2 µM was 23%.
In the case of `Cc1ccc(CNC(=O)[C@H](Cc2ccc3ccccc3c2)NC(=O)[C@H](CCC(=O)NC(C)(C)C)NC(=O)CCNC(=O)CCl)cc1`, the inhibition of growth at 0.2 µM was < 20%.

Each compound was assayed on HT-29 (assay: Antiproliferative activity against human HT-29 cells assessed as growth inhibition at 0.2 uM measured after 72 hrs by MTT assay). Details: read-out: GI.
Format: functional
For `Cc1ccc(CNC(=O)[C@H](Cc2ccccc2)NC(=O)[C@H](CCC(=O)NC(C)(C)C)NC(=O)[C@H](CNC(=O)CCl)NC(=O)CCCc2ccccc2)cc1`, the inhibition of growth at 0.2 µM was 53%.
In the case of `Cc1ccc(CNC(=O)[C@H](Cc2ccc([N+](=O)[O-])cc2)NC(=O)[C@H](CCC(=O)NC(C)(C)C)NC(=O)CCNC(=O)CCl)cc1`, the inhibition of growth at 0.2 µM was < 20%.
For `Cc1ccc(CNC(=O)[C@H](Cc2ccccc2)NC(=O)[C@H](CCC(=O)NC(C)(C)C)NC(=O)CCNC(=O)/C(C#N)=C/c2ccco2)cc1`, the inhibition of growth at 0.2 µM was 48%.
With `Cc1ccc(CNC(=O)[C@H](Cc2ccc3ccccc3c2)NC(=O)[C@H](CCC(=O)NC(C)(C)C)NC(=O)CCNC(=O)CCl)cc1` the inhibition of growth at 0.2 µM was < 20%.

What follows are compounds tested against T2, Proteasome subunit beta type-10 (Homo sapiens, UniProt P40306) (assay: Inhibition of 20S proteasome subunit beta-2i (unknown origin) using Ac-KQL-AMC as substrate and measured after 30 mins). Details: not given.
T2 sequence (P40306 whole entry): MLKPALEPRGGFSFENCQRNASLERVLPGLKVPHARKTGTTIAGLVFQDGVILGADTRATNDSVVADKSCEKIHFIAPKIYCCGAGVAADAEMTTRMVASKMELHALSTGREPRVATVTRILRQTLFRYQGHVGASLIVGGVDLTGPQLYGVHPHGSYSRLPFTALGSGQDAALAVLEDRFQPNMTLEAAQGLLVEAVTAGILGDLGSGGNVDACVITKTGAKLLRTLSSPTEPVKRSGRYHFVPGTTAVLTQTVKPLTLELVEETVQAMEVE
In the case of `Cc1ccc(CNC(=O)[C@H](Cc2ccccc2)NC(=O)[C@H](CCC(=O)NC(C)(C)C)NC(=O)CCNC(=O)/C(C#N)=C/c2ccco2)cc1`, the pIC50 was < 4.40.

These compounds were tested on HCT-116 (assay: Antiproliferative activity against human HCT-116 cells assessed as growth inhibition at 0.2 uM measured after 72 hrs by MTT assay). Details: read-out: GI.
Format: functional
`Cc1ccc(CNC(=O)[C@H](Cc2ccccc2)NC(=O)[C@H](CCC(=O)NC(C)(C)C)NC(=O)[C@H](CNC(=O)CCl)NC(=O)CCCc2ccccc2)cc1` gave an inhibition of growth at 0.2 µM of 82%.
Work on `Cc1ccc(CNC(=O)[C@H](Cc2ccc([N+](=O)[O-])cc2)NC(=O)[C@H](CCC(=O)NC(C)(C)C)NC(=O)CCNC(=O)CCl)cc1` yielded an inhibition of growth at 0.2 µM of 58%.
`Cc1ccc(CNC(=O)[C@H](Cc2ccccc2)NC(=O)[C@H](CCC(=O)NC(C)(C)C)NC(=O)CCNC(=O)/C(C#N)=C/c2ccco2)cc1` was tested, and the inhibition of growth at 0.2 µM was 76%.
`Cc1ccc(CNC(=O)[C@H](Cc2ccc3ccccc3c2)NC(=O)[C@H](CCC(=O)NC(C)(C)C)NC(=O)CCNC(=O)CCl)cc1` gave an inhibition of growth at 0.2 µM of 60%.

What follows are compounds tested against T3, Proteasome Macropain subunit MB1 (Homo sapiens, UniProt P28074) (assay: Inhibition of 20S proteasome subunit beta-5c (unknown origin) using Ac-WLA-AMC as substrate and measured after 30 mins). Details: not given.
T3 sequence (P28074 whole entry): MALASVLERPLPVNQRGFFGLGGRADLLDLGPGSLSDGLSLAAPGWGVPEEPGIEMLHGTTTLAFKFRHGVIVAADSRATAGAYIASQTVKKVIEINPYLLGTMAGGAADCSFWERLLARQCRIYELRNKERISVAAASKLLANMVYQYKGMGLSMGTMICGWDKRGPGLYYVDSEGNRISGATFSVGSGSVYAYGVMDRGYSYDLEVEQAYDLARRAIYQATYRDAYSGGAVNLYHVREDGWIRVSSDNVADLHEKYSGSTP
In the case of `Cc1ccc(CNC(=O)[C@H](Cc2ccc([N+](=O)[O-])cc2)NC(=O)[C@H](CCC(=O)NC(C)(C)C)NC(=O)CCNC(=O)CCl)cc1`, the pIC50 was 7.08.

These compounds were tested against T4, Proteasome subunit beta type-9 (Homo sapiens, UniProt P28065) (assay: Inhibition of 20S proteasome subunit beta-1i (unknown origin) using Ac-PAL-AMC as substrate and measured after 30 mins). Details: not given.
T4 sequence (P28065 whole entry): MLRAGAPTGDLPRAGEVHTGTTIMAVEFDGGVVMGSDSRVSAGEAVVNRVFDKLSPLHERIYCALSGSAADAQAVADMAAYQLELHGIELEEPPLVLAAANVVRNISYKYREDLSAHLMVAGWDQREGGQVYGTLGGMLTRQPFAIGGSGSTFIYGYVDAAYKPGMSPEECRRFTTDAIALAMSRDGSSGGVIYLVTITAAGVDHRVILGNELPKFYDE
In the case of `Cc1ccc(CNC(=O)[C@H](Cc2ccccc2)NC(=O)[C@H](CCC(=O)NC(C)(C)C)NC(=O)CCNC(=O)/C(C#N)=C/c2ccco2)cc1`, the pIC50 was < 4.40.
